In US10288604B2, “Method for imaging cell using fluorescence-labeled sugar derivative having coumarin derivative bound thereto, and imaging agent” (HIROSAKI UNIVERSITY, priority 2012, dated 2019):
“Also recorded” adds a separate entry of the source.

Legend:
Format in all cases: cell-based
[1] = test system: tumor cell cluster composed of mouse insulinoma cells (MIN6); assay: Imaging of tumor cell cluster composed of MIN6 cells (real time laser scanning confocal microscope); details: MIN6 cluster day 13; for fluorescence of cells in the cancer cell cluster 8 minutes after completion of administration: mixed solution 100 μM 2-PBLG, 100 μM 2-NBDLG, 20 μM 2-TRLG
Method: A culture solution prepared by suspending MIN6 cells at a proportion of 10×10^4 cells/mL was dropped in an amount of 10 μL on a glass cover slip, then, allowed to adhere to the glass surface, and 3 mL of the culture solution was added and cultured. The half quantity of the culture solution was changed every three days.
Cryopreserved MIN6 cells (cells donated from Professor Miyazaki Junichi of Osaka University and cultured 5 to 8 passages) were subjected to culture according to an ordinary method, and cultured 7 to 9 passages which were used in experiments. The half amount of the culture solution was changed every two days.
NaCl 120.0 mM, KCl 4.75 mM, KH2 PO4 1.19 mM, MgSO4.7H2O 1.19 mM, CaCl2.2H2O 1 mM, NaHCO3 5.02 mM, D-Glucose 5.6 mM, HEPES 10 mM (adjusted to pH 7.35 with 1M NaOH). For inhibiting entrance and elimination of fluorescently labeled glucose via a gap junction/hemichannel, 0.1 mM Carbenoxolone (SIGMA #C4790) was added. The HEPES solution for image acquisition was used as a solution for preparing a 2-PBLG solution and as a solution for preparing a 2-PBLG/2-TRLG solution and 2-PBLG/2-NBDLG/2-TRLG solution.
A glass cover slip wherein MIN6 cells had been cultured was transferred into a HEPES solution for image acquisition in a perfusion chamber set on a universal stage (Leica 11600234) on a confocal laser scanning microscope (TCS SP5 available from Leica), and adhered gently and tightly to the glass surface at the bottom of the chamber. […] Further, there is an excellent effect that in the space sandwiched by the metal guides, the perfusion solution flows smoothly as a laminar flow and quick solution exchange is possible.
A perfusion solution feeding system is equipped with one 60 mL cylinder for a control solution and five 10 mL cylinders for agent feeding, which can be switched as needed by a magnetic valve to allow perfusion. In experiments according to the present invention, a 5.6 mM glucose-containing HEPES solution for image acquisition was administered using the 60 mL cylinder and a mixed solution of 2-PBLG/2-NBDLG/2-TRLG, a mixed solution of 2-PBDG/2-TRLG, or a mixed solution of 2-PBLG/2-TRLG was administered using one of the five 10 mL cylinders. As described below, to avoid generation of bubbles in the perfusion chamber, both the solutions were heated beforehand, combined in one tube before being introduced into the perfusion chamber, the flow rate thereof being controlled by a flow rate controller, then, heated again by an inline heater and fed to the perfusion chamber on the confocal microscope.
A laser scan confocal microscope (manufactured by Leica, TCS-SP5 system, microscope body is DMI6000 CS trino electromotive inverted microscope) was used in conventional mode. Regarding laser used, a 405 nm diode laser was used for excitation of 2-PBLG and 2-PBDG, excitation of a mixed solution of 2-PBLG (or 2-PBDG) and 2-TRLG with a single light source, or live staining of nucleus by DAPI. The irradiation intensity was appropriately adjusted in accordance with the fluorescent pigment used so as to obtain sufficient observation intensity by an acoustic optical polarization element (Acoustic Optical Tunable Filter, AOTF). 2-NBDLG and 2-TRLG were excited by 488 nm Argon laser. The scan speed was 200 Hz or 400 Hz.
In fluorescence detection, a photomultiplier detector (PMT) 1 was used for detection of blue fluorescence by 2-PBDG or 2-PBLG and images were acquired in a wavelength detection range set at 415-580 nm in the case of detection of bicolor of 2-PBLG/2-TRLG and in a wavelength detection range set at 415-500 nm in the case of detection of tricolor of 2-PBLG/2-NBDLG/2-TRLG. For detection of green fluorescence by 2-NBDLG, PMT2 (called green channel, the same shall apply hereinafter) was used in a wavelength detection range of 500-580 nm. For detection of red fluorescence by 2-TRLG, PMT3 (called red channel, the same shall apply hereinafter) was used in a wavelength detection range of 580-740 nm. […]

[2] = test system: neurons acutely dissociated from mouse midbrain substantia nigra pars reticulata; assay: Application of fluorescent sugar derivatives to acutely dissociated normal neurons (confocal imaging of uptake); details: for increase in fluorescence intensity in the neuron before and after administration: 3 minutes, comparative compounds
Method: This was conducted according to a method described in WO 2010/16587.
Living neurons were acutely dissociated from mouse midbrain substantia nigra pars reticulata, and to which a mixed solution containing 100 μM of 2-PBDG and 20 μM of 2-TRLG was administered at 37° C. for 5 minutes. FIGS. 1A to C represent confocal microscopic images taken immediately before this. A is a fluorescence image in blue wavelength region (Blue channel, wavelength range: 415-580 nm). The position of cells is recognized by autofluorescence. The fluorescence signal intensity is represented by pseudocolor. B is a fluorescence image in red wavelength region (Red channel, 580-740 nm). A and B were obtained both by simultaneous excitation using 405 nm Blue diode laser at an intensity of 60%, wherein photomultipliers (PMT) 1 and 2 were used respectively, and the detection sensitivity of PMT2 was raised higher than PMT1 so that the presence or absence of invasion of 2-TRLG can be detected in a sensitive manner. C is a view in which the bright field image is overlaid on the fluorescence images of A and B.
An experiment was conducted in the same manner as in Example 2.
FIGS. 2A to C represent confocal microscopic images immediately before administration of a mixed solution containing 100 μM of 2-PBLG and 20 μM of 2-TRLG at 37° C. to acutely dissociated neurons of mouse midbrain substantia nigra pars reticulata for 5 minutes.
FIG. 3 represents confocal microscopic images before and after administration of a mixed solution containing 100 μM of 2-HCDG and 20 μM of 2-TRLG at 37° C. for 3 minutes to neurons acutely dissociated from mouse midbrain substantia nigra pars reticulata. A and B are fluorescence images acquired before administration in Blue channel (415-580 nm) and Red channel (580-740 nm), respectively. The excitation wavelength is 405 nm. C is an image of differential interference (Differential Interference contrast, DIC). D is an overlay of the above-described images. E to H are the same as A to D, excepting that E to H are images acquired 4 minutes after initiation of washout of the fluorescence tracer solution after administration of the 2-HCDG+2-TRLG fluorescence tracer solution at 37° C. for 3 minutes. […] Since invasion of 2-TRLG into a cell is not observed, the plasma membrane of the neuron is thought to be maintained intactly.
Since the optimal excitation wavelength was as very low as 320 nm in this experiment, an image was acquired by Retiga-2000R CCD camera manufactured by Q-imaging via a custom-order filter constituted of an excitation filter (320 nm) (half width: 40 nm), a fluorescence filter (435 nm) (half width: 40 nm) and a dichroic mirror (409 nm), by a xenon lamp, using Nikon Ti-E real time deconvolution microscope.

[3] = test system: mouse insulinoma cells (MIN6); assay: Uptake into MIN6 cells and influence of glucose transport inhibitors (fluorescent microplate reader)
Method: Cryopreserved MIN6 cells (cells donated from Professor Miyazaki Junichi of Osaka University and cultured 5 to 8 passages) were subjected to culture according to an ordinary method, and cultures at 7 to 9 passages were used in experiments.
NaCl 129.0 mM, KCl 4.75 mM, KH2 PO4 1.19 mM, MgSO4.7H2O 1.19 mM, CaCl2.2H2O 1.0 mM, NaHCO3 5.02 mM, D-Glucose 5.6 mM, HEPES 10 mM (pH was adjusted to 7.35 with 1M NaOH). For inhibiting entrance and elimination of a fluorescently labeled glucose via gap junction/hemichannel, 0.1 mM Carbenoxolone (SIGMA #C4790) was added. This KRB solution was used as a solution for preparing a 2-PBLG solution.
2-PBDG and 2-PBLG were charged into wells at the third column and the fifth column, respectively, using a 8-channel pipette. Before administration, the autofluorescence of each well was measured beforehand by a fluorescent micro plate reader (Flex Station, manufactured by Molecular Device). The measurement conditions include Bottom Read, Ex 401 nm, Em 453 nm, Cut off 420 nm, Averaging 3, and high sensitivity of Photomultiplier. In the measurement method, Well Scan Mode was used. In Well Scan Mode, the inside of one well was divided into 9 regions of interest (diameter: 1.5 mm) and measurement was performed each independently.
Next, in wells (3C, 3E, 3G) for measuring the effect of a glucose transport inhibitor phloretin, phloretin (final 150 μM) was administered beforehand from 5 minutes prior to administration of 2-PBDG, while KRB was added to other wells (3B, 3D, 3F). Similar operation was also conducted on the fifth column where 2-PBLG was to be administered. 2-PBDG and 2-PBLG were administrated at 37° C. for 10 minutes.
After completion of administration, a diluting operation of the fluorescence solution in the well using 300 μL of a KRB solution was repeated set times each for 30 seconds. The repetition time was determined so that the fluorescence intensity detected by wells of A-th row and H-th row set as a control group was equivalent to the fluorescence intensity of a blank well containing no cell, and complete washout was confirmed in every experiment. In the case of 2-PBDG and 2-PBLG, this washout process needed 8 minutes, thus, measurement of fluorescence after administration was carried out 9 minutes after.
According to this method, even if cells having undergone a loss of the plasma membrane contacted 2-PBDG and 2-PBLG and once took up these compounds into themselves, it is judged that contribution of the increase in the fluorescence intensity to the whole observation area was ignorable level since these compounds had already been washed out of the cells when performing the measurement. This was supported by a pharmacological inhibition experiment separately in which the increase in the fluorescence intensity almost completely disappeared in the presence of an inhibitor. The above-described method was conducted in the same manner also when other inhibitor, for example, cytochalasin B (10 μM) was added.
The change of fluorescence intensity by administration of a D-glucose derivative (2-PBDG), an L-glucose derivative (2-PBLG) and PB—NH2 prepared by amidating Pacific Blue (PB) chromophore group to MIN6 cells on day of 10 of culture and the effect by a glucose transport inhibitor were confirmed in the same manner as in Example 4. PB—NH2 has the following structure (Ex max. 402 nm, Em max. 451 nm).
An experiment was conducted in the same manner as in Example 4.
The experiment was carried out 3 times independently, and the same results were obtained in all cases. In the experiment of administration of 2-PBDM, excitation occurred at a maximum excitation light wavelength of 404 nm and fluorescence was acquired at a maximum emission wavelength of 453 nm.

[4] = 100 μM with 20 μM 2-TRLG, 37° C.
[5] = 100 μM derivative, phloretin 150 μM, MIN6 day 10

Molecule: 2-TexasRed-2-amino-2-deoxy-L-glucose [2-TRLG]
- fluorescence of cells in the cell cluster 2 minutes after initiation of washout ([1]; mixed solution 100 μM 2-PBLG and 20 μM 2-TRLG, administered 5 minutes): invades into the cell having increased membrane permeability mainly present at the center of a cell cluster
- fluorescence of cells in the cancer cell cluster 8 minutes after completion of administration [1]: very weak red fluorescence
- fluorescence intensity in Red channel / invasion of 2-TRLG into a cell ([2]; 20 μM 2-TRLG co-administered with 100 μM blue derivative, 37° C.): did not increase; also recorded: scarcely increased; also recorded: not observed

Molecule: O=C(NC1C(O)OC(CO)[C@@H](O)C1O)c1cc2ccc(O)cc2oc1=O (stereo partly drawn) [2-HCDG, 2-Deoxy-2-((7-hydroxycoumarin-3-yl)carboxamido)-D-glucose]
- increase in fluorescence intensity in the neuron before and after administration [2, 4]: no increase in the fluorescence intensity is detected

Molecule: COc1ccc2c(CC(=O)N[C@@H](C=O)[C@@H](O)[C@H](O)[C@H](O)CO)cc(=O)oc2c1 [2-MCDG, 2-Deoxy-2-(2-(7-methoxycoumarin-4-yl)acetamido)-D-glucose]
- increase in fluorescence intensity in the neuron before and after administration [2, 4]: not recognized

Molecule: O=[N+]([O-])c1ccc(NC2C(O)OC(CO)[C@H](O)C2O)c2nonc12 (stereo partly drawn) [2-NBDLG, 2-[N-(7-nitrobenz-2-oxa-1,3-diazol-4-yl)amino]-2-deoxy-L-glucose, reference compound]
- fluorescence of cells in the cancer cell cluster 8 minutes after completion of administration [1]: difficult to specify these cells only by the fluorescence imaging by 2-NBDLG

Molecule: O=C(NC1C(O)OC(CO)[C@@H](O)C1O)c1cc2cc(F)c(O)c(F)c2oc1=O (stereo partly drawn) [2-PBDG, 2-Deoxy-2-((6,8-difluoro-7-hydroxycoumarin-3-yl)carboxamido)-D-glucose]
- intracellular fluorescence intensity in Blue channel as compared with that before administration ([2]; 100 μM with 20 μM 2-TRLG, 37° C., 5 minutes, image 4 minutes after initiation of washout): increased excepting nucleus
- persistence of intracellular blue fluorescence after washout ([2]; images 8 and 20 minutes after initiation of washout): not easily diminished
- decreased value of fluorescence intensity owing to phloretin (average) ([3]; 100 μM derivative, 150 μM phloretin, MIN6 day 10, increase without phloretin as reference): 22.4%
- effect of cytochalasin B on increase in fluorescence intensity ([3]; 100 μM derivative, cytochalasin B 10 μM, MIN6 day 10): did not show a significant inhibitory effect
- fluorescence intensity after administration as compared with that before administration ([3]; 100 μM, MIN6 on day 10 of culture, Ex 401 nm, Em 453 nm): increases significantly

Molecule: O=C(NC1C(O)OC(CO)[C@@H](O)C1O)c1cc2cc(F)c(O)c(F)c2oc1=O (stereo partly drawn) [2-PBDM, 2-Deoxy-2-((6,8-difluoro-7-hydroxycoumarin-3-yl)carboxamido)-D-mannose]
- effect of phloretin on increase in fluorescence intensity (in words) [3, 5]: slight but significant inhibitory effect

Molecule: NC(=O)c1cc2cc(F)c(O)c(F)c2oc1=O [PB—NH2, reference compound]
- effect of phloretin on increase in fluorescence intensity (in words) [3, 5]: remarkably promoted
- increase in the fluorescence with phloretin compared to when only PB—NH2 is administrated ([3]; 100 μM, phloretin 150 μM, n=3 experiments): 384.1±24.2%
- increase in fluorescence intensity compared with that of 2-PBLG ([3]; 100 μM, same culture plate, MIN6 day 10): significantly larger
